Assay type in all cases: functional
One assay deals with Huh-7. Kind of assay: Growth inhibition of human Huh-7 cells after 3 days by MTT assay. The settings on record: time 3 day; for GI50: Homo sapiens, Huh-7, 72 h. A general note: Tetrazolium assays rely on reduction of a dye to a coloured formazan, in cell work by metabolically active cells.
The next assay relates to HepG2. Kind of assay: Growth inhibition of human HepG2 cells after 3 days by MTT assay. The settings on record: time 3 day; for GI50: Homo sapiens, HepG2, 72 h.
A further assay concerns PLC-PRF-5. Kind of assay: Growth inhibition of human PLC-PRF-5 cells after 3 days by MTT assay. The settings on record: time 3 day.
In the next assay the test system is Hep 3B2. Kind of assay: Growth inhibition of human Hep3B cells after 3 days by MTT assay. The following applies: time 3 day.

For orientation: GI50 means the concentration that inhibits growth by half. Low readings indicate more potent growth inhibition, high ones less potent growth inhibition.

As to `Cc1nc(Nc2ncc(C(=O)Nc3c(C)cccc3Cl)s2)cc(N2CCN(CCO)CC2)n1` [DASATINIB ANHYDROUS], the GI50 in the assay on Huh-7 is 1970 nM; in the assay on HepG2, more than 50000 nM. Also, the results for the GI80 in the assay on Huh-7 and with HepG2 were 7135 nM and more than 50000 nM, respectively.
Consider `O=C(Cc1ccc(-c2ccc(OCCN3CCOCC3)cc2)cn1)NCc1ccccc1` [TIRBANIBULIN], for which the GI50 with Huh-7 turned out to be 9 nM; in the assay on PLC-PRF-5 (Homo sapiens, PLC-PRF-5, 72 h), 13 nM; with Hep 3B2 (Homo sapiens, Hep3B, 72 h), 26 nM; in the assay on HepG2, 60 nM. Further, the GI80 in the assay on Huh-7 is listed as 23 nM; in the assay on PLC-PRF-5, 24 nM; in the assay with Hep 3B2, 88 nM; in the assay with HepG2 it was 3658 nM.
